Experiments:
[1] = molecular target: T1, Porcine pancreatic lipase (Sus scrofa, UniProt P00591); test: Test of activity of inhibiting lipase (copper oleate colorimetry, olive oil substrate); format: biochemical, pig; settings: final concentration of inhibitor in the system 1.85 μg/mL
T1 construct: purchased Sigma
T1 sequence (P00591 1-450): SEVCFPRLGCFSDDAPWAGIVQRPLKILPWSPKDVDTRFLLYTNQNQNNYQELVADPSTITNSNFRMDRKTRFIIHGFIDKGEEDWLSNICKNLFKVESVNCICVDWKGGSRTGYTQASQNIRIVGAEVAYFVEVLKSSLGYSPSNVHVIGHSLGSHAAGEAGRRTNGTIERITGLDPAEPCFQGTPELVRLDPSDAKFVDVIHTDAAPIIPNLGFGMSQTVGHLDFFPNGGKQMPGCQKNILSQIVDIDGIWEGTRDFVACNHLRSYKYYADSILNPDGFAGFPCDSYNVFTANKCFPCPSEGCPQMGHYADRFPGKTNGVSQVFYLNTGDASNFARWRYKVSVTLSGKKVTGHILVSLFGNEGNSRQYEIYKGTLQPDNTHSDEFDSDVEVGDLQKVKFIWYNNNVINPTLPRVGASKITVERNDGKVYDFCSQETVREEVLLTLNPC
Experimental: 2.1 Preparation of light absorbance working curve for fatty acid: a series of oleic acid-toluene solutions with different concentrations (0-3.5 mmol/L, separately being 0, 0.225, 0.45, 0.675, 0.9, 1.125, 1.35, 1.8, 2.25, 2.7, and 3.5 mmol/L), 4 mL of each was taken and placed in conical flask, added with 1 mL of color developing agent, stirred with magnetic force for 3 minutes, oleic acid molecules and copper ions formed a green complex compound, after centrifugation, organic phase of upper layer was taken and measured at 714 nm to determine light absorbance.
2.2 Enzyme solution was 0.5 mg/mL pancreatic lipase solution; buffer solution was 0.07M NaH2PO4—K2HPO4 phosphate buffer solution (pH 7.0); color developing agent was 5% copper acetate solution, which was regulated with pyridine to have pH 6.1.
3 mL of 0.07M phosphate buffer solution and 1 mL of olive oil were pre-heated at a constant temperature of 37° C. for 5 minutes in water bath under agitation with a magnetic stirrer, added with 1.3 mL of enzyme solution (negative control was that without enzyme inhibitor; positive control is that added with 100 μL of 0.1 mg/mL orlistat solution; […]), stirred with magnetic force for 10 minutes, immediately added with 8 mL of toluene, stirred continuously for 2 minutes, the reaction was terminated, the generated oleic acid was extracted. The solutions were transferred to centrifuge tube, centrifuged under 4000 rpm for 10 minutes, and the organic phase and water phase were layered and clarified. 4 mL of the upper layer organic phase was taken and placed in a small conical flask, added with 1 mL of color developing agent, stirred with magnetic stirrer for 3 minutes, the generated oleic acid reacted with copper ions to form green complex compound. After centrifugation under 4000 rpm for 10 minutes, the upper layer of toluene solution containing copper oleate was taken, and measured with a spectrophotometer at 714 nm to determine its light absorbance. A blank solution without lipase was prepared as control by the same method, and concentration of fatty acid could be determined by referring to light absorbance working curve of oleic acid.
Enzyme activity unit of lipase was defined as follows: an enzyme amount to release 1 μmol fatty acid under certain condition was defined as 1 unit of lipase activity (U).
The following formula was used to calculate enzyme activity: X=(cV)/(tV′)
wherein: X represents enzyme activity of lipase, U/mL; c represents concentration of fatty acid, […]; V represents volume of fatty acid solution, mL; V′ represents amount of enzyme solution, mL; t represents action time, minute. Inhibition rate=[(enzyme activity of lipase−enzyme activity of lipase after inhibition)/enzyme activity of lipase]×100%

[2] = molecular target: T2, HMG-CoA reductase (rat liver microsomes) (Rattus norvegicus, UniProt P51639); test: Test of activity of inhibiting HMG-CoA reductase (rate of decline of OD340); format: biochemical; settings: final concentration in system 80 μg/mL
T2 construct: taking out liver of male rat, washing with KESD buffer solution; from tissue; host or cells: liver of male rat (microsomal fraction, glycerol/37 °C treatment, 35-50% ammonium sulfate fraction)
T2 sequence (P51639 1-887): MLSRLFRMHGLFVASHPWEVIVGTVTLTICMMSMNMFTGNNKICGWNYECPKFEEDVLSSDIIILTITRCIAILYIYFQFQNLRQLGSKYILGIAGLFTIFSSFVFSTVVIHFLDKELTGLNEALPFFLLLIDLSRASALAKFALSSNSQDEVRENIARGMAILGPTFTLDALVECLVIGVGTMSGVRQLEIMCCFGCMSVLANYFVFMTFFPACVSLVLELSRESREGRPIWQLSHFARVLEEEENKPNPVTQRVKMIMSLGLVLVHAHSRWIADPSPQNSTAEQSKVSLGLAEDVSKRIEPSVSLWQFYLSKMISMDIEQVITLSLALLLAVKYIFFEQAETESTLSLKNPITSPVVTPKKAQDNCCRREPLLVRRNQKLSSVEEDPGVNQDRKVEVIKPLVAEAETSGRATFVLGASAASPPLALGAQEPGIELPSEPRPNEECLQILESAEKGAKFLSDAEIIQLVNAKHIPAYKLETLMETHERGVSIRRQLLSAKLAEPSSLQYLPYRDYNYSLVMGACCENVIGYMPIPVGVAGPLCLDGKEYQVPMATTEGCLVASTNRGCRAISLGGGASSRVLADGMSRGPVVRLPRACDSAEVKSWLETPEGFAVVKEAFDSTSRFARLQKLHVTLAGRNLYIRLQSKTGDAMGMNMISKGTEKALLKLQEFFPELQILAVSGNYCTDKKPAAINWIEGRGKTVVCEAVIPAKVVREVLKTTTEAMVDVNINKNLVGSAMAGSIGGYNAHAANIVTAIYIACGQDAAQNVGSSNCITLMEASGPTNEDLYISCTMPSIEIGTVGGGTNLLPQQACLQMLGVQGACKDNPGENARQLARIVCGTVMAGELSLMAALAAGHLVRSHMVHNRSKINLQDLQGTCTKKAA
Experimental: Rat liver microsomes (HMG-CoA reductase), could be commercially available or prepared by the following preparation method: taking out liver of male rat, washing with KESD buffer solution, centrifuging under 1200 g for 15 minutes, collecting supernatant, then centrifuging under 105,000 g twice, 90 minutes for each time, and collecting centrifugation deposit. The centrifugation deposit was added with 8.3% of glycerol, heated with 37° C. bath for 1 hour. The crude product of rat liver microsomes was purified with saturated ammonium sulfate, and 35-50% of purified fraction was collected. The purified fraction obtained could be stored in −80° C. refrigerator.
Compound of Formula II was dissolved in 75% ethanol solution, with initial concentration of 8.0 mg/mL, and diluted in gradient manner, to reach 4.0 mg/mL, 2.0 mg/mL, 1.0 mg/mL; lovastatin was used as positive control, dissolved with 75% ethanol solution to reach concentration of 2.0 mg/mL; in the test system, total volume was 250 μL, concentrations of ingredients were separately: potassium chloride 200 mM, potassium dihydrogen phosphate 160 mM, ethylenediamine tetraacetic acid 4 mM, dithiothreitol 10 mM, […] and 3-hydroxy-3-methylglutary coenzyme A as two substrates separately had concentrations of: 200 μM and 50 μM, pH6.8, 30 μL of enzyme was added, 4 test groups were separately added with 10 μL of new compound solutions with different concentrations, the positive control group was added with 10 μL of lovastatin solution, the blank control group was added with 10 μL of 75% ethanol solution, and dynamitic changes of OD340 were detected with Versamax ELISA at 37° C. condition. The rate of decline of OD340 (expressed in slope value) as detected within 5 minutes was used to evaluate the activity of HMG-CoA reductase, and then to evaluate the activity of enzyme inhibitor and the results were shown in Table 2.

Inhibition rate [2] | Slope (rate of decline of OD340) ([2]; blank control slope 16.0) | SMILES | Absorbance ([1]; 714 nm, blank control 0.6680) | Inhibition rate [1] | Enzyme activity ([1]; blank control 1.69) | Concentration of generated oleic acid ([1]; blank control 2.75)
– | – | CCCCCCCCCCC[C@@H](C[C@@H]1OC(=O)[C@H]1CCCCCC)OC(=O)[C@H](CC(C)C)NC=O [Orlistat, orlistat, reference compound] | 0.2042 | 69.84% | 0.50 U/mL | 0.81 mM
54.4% | 7.3 | CC[C@H](C)C(=O)O[C@H]1C[C@@H](C)C=C2C=C[C@H](C)[C@H](CC[C@@H]3C[C@@H](O)CC(=O)O3)[C@H]21 [Lovastatin, lovastatin, reference compound] | – | – | – | –
